Laboratory results reported in US20220031710A1, “USE OF ERK5 INHIBITORS FOR TREATING GLIOMAS IN PEDIATRIC SUBJECTS” (UNIVERSITY OF PITTSBURGH - OF THE COMMONWEALTH SYSTEM OF …, priority 2019, published 2022).

How the values were obtained:
ERK5 [1] = target: T1, ERK5 (Homo sapiens, UniProt Q13164); experiment: Western blot of tumor lysates from treated mice (pERK5, cleaved PARP); format: in vivo; set-up: from tissue; host or cells: Tumour lysates from orthotopic DIPG xenografts (SF8628 or DIPG-13p) in NOD-SCID mice; settings: mice sacrificed after 5 days of treatment
T1 sequence (Q13164 whole entry): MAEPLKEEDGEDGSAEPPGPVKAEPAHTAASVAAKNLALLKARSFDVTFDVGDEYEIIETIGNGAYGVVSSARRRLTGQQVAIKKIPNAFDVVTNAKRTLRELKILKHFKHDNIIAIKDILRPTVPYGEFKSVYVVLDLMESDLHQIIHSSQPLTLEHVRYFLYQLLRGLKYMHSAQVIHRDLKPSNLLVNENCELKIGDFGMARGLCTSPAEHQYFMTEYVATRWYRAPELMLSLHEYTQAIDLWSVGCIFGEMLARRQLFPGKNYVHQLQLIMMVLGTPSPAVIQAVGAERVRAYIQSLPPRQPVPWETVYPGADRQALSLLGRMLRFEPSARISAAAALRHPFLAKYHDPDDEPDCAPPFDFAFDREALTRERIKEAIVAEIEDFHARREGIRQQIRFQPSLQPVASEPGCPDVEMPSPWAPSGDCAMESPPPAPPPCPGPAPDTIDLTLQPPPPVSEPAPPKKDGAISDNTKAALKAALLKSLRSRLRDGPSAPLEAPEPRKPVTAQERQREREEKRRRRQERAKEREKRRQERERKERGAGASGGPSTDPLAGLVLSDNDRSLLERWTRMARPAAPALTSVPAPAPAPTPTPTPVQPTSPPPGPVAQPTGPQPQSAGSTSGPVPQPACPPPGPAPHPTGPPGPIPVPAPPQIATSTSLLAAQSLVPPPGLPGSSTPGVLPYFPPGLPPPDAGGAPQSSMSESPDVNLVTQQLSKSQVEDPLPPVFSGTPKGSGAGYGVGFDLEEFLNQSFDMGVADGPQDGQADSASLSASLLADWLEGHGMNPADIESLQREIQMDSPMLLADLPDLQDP
Procedure: Cell pellets were lysed in PLC lysis buffer containing protease and phosphatase inhibitors (Roche Inc.). Protein lysates were quantified using the bicinchoninic acid (BCA) assay (Pierce Chemical Co., Rockford, Ill.). 30 μg of total protein lysate was loaded in 10% SDS-PAGE gels and electrophoresed. Proteins were transferred to PVDF membranes using a semi-dry transfer apparatus (Bio-Rad). Membranes were blocked for one hour and probed for various proteins overnight in 5% non-fat milk or 5% BSA in Tris Buffered Saline Solution, 0.5% Tween-20 (TBST) or Phosphate Buffered Saline Solution with 0.5% Tween-20 (PBST). Membranes were washed for 5 mins in TBST (3×) and incubated with horseradish peroxidase-conjugated antibodies specific for the primary antibody (BioRad Laboratories, Inc., CA, USA). Binding was detected using Chemiluminescence Reagent Plus (PerkinElmer Inc., MA, USA). Antibodies were used at the following dilutions:
All animal procedures were carried out ethically according to animal user protocols approved by Institutional Animal Care Committee (IACUC). 4-6 week-old non-obese diabetic severe combined immune deficiency male or female mice (NOD-SCID-Prkdc^scid) were injected with 1×10^5 SU-DIPG-13p cells or 1×10^5 SF8628 DIPG cells. […]

ERK5 [2] = target: T1, ERK5; experiment: In vitro kinase assay of purified recombinant ERK5 and MYC; format: biochemical; set-up: purchased ThermoFisher Scientific A32872; settings: 200 μM ATP, 30 minutes at 30° C.
Procedure: Purified active recombinant ERK5 protein was purchased from ThermoFisher Scientific (Cat #A32872) and purified recombinant MYC was purchased from Abcam (Cat #ab84132). Purified ERK5 and MYC were resuspended in 40 μl of 1× kinase buffer supplemented with 200 μM ATP, 0.25 μg substrate, and 1.0 μg purified recombinant and active kinase. Samples were incubated in the presence or absence of ERK5 inhibitors for 30 minutes at 30° C. The reaction was terminated with 20 μl 3×SDS sample buffer. Samples were then boiled at 100° C. for 5 minutes and then evaluated by western blotting using a phospho MYC ser62 antibody (1:1000). 1× Kinase Buffer recipe: 25 mM Tris (pH 7.5), 5 mM β-glycerophosphate, 2 mM DTT, 0.1 mM Na3VO4, 10 mM MgCl2.

## CCOc1cc(C(=O)N2CCC(N3CCN(C)CC3)CC2)ccc1Nc1ncc2c(n1)N(C1CCCC1)c1ccccc1C(=O)N2C [ERK5-IN-1, 11-cyclopentyl-2-[[2-ethoxy-4-[[4-(4-methyl-1-piperazinyl)-1-piperidinyl]carbonyl]phenyl]amino]-5,11-dihydro-5-methyl-6H-pyrimido[4,5b][1,4]benzodiazepin-6-one]
ERK5 [1]
  apoptosis by cleaved PARP in vivo: induction of apoptosis
  in vivo ERK5 auto-phosphorylation: inhibition of ERK5 auto-phosphorylation
ERK5 [2]
  Phosphorylation of MYC(S62): inhibited
